US9365522B2, “Pyrazole amide derivative” (AMGEN INC., priority 2015, dated 2016)

Molecular target: T1, ligand binding domain of human ROR gamma (Homo sapiens, UniProt P51449)
T1 construct: NM_001001523; expressed in transfected cells; host or cells: HEK293T
T1 sequence (P51449 247-497 isoform P51449-2): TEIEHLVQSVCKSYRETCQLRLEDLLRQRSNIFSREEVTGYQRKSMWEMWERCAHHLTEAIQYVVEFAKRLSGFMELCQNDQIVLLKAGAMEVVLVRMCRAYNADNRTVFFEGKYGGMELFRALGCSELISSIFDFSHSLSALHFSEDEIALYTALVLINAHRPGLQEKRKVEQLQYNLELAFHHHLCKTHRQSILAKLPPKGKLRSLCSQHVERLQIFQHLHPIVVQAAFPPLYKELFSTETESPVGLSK
Test: ROR gamma reporter gene assay (GAL4-RORγ LBD luciferase, Dual-Glo)
Format: cell-based
Settings: HEK293T cells transfected with pM-ROR gamma, 8 concentrations 3.5 nM to 10.5 μM, 24 h incubation; read-out: result (pIC50, inhibition of RORγ transcriptional activity) (converted)
Procedure, shortened: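 Inhibition of RORγ-driven transcription was measured in HEK293T cells expressing a GAL4 fusion of the human RORγ LBD (aa 247-497), with renilla luciferase as internal control. Cells in 10% charcoal-stripped serum received compound (3.5 nM–10.5 μM) for 24 h.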

| SMILES | IC50 |
| --- | --- |
| COc1cccc(Cl)c1C(=O)CN(C(=O)c1cnn(C23CCC(C(=O)O)(CC2)CC3)c1C(F)(F)F)[C@H]1C[C@@H]2[C@H](C1)C2(C)C [Example 248, 4-(4-((2-(2-chloro-6-methoxyphenyl)-2-oxoethyl)-((1R,3r,5S)-6,6-dimethyl-3-bicyclo[3.1.0]hexanyl)carbamoyl)-5-(trifluoromethyl)pyrazol-1-yl)bicyclo[2.2.2]octane-1-carboxylic acid] | 21400 pM |
| O=C(CN(C(=O)c1cnn([C@H]2CC[C@H](C(=O)O)CC2)c1C(F)(F)F)C1CCC(F)(F)CC1)c1c(Cl)cncc1Cl [Example 175, trans-4-(4-((2-(3,5-dichloropyridin-4-yl)-2-oxoethyl)-(4,4-difluorocyclohexyl)carbamoyl)-5-(trifluoromethyl)pyrazol-1-yl)cyclohexane-1-carboxylic acid] | 603000 pM |
| Cc1noc(C)c1C(=O)CN(Cc1cc(F)cc(F)c1)C(=O)c1cnn([C@H]2CC[C@H](C(=O)O)CC2)c1C(F)(F)F [Example 64, trans-4-(4-((3,5-difluorobenzyl)(2-(3,5-dimethylisoxazol-4-yl)-2-oxoethyl)carbamoyl)-5-(trifluoromethyl)-1H-pyrazol-1-yl)cyclohexanecarboxylic acid] | > 1e+07 pM |
| CC1(C)[C@@H]2C[C@H](N(CC(=O)c3c(F)cncc3Cl)C(=O)c3cnn(C45CCC(C(=O)O)(CC4)CC5)c3C(F)(F)F)C[C@@H]21 [Example 335, 4-(4-((2-(3-chloro-5-fluoropyridin-4-yl)-2-oxoethyl)((1R,3r,5S)-6,6-dimethylbicyclo[3.1.0]hexan-3-yl)carbamoyl)-5-(trifluoromethyl)-1H-pyrazol-1-yl)bicyclo(2.2.2)octane-1-carboxylic acid] | 12300 pM |
| O=C(CN(Cc1cc(F)cc(F)c1)C(=O)c1cnn([C@H]2CC[C@H](C(=O)O)CC2)c1C(F)(F)F)c1c(F)cc(F)cc1Cl [Example 179, trans-4-(4-((2-(2-chloro-4,6-difluorophenyl)-2-oxoethyl)-((3,5-difluorophenyl)methyl)carbamoyl)-5-(trifluoromethyl)pyrazol-1-yl)cyclohexane-1-carboxylic acid] | 52500 pM |

More lines, now with the values ahead:

| IC50 | SMILES |
| --- | --- |
| 117000 pM | COc1cccc(Cl)c1C(=O)CN(CC1CCC(C)(C)CC1)C(=O)c1cnn([C@H]2CC[C@](C)(C(=O)O)CC2)c1C(F)(F)F [Example 259, trans-4-(4-((2-(2-chloro-6-methoxyphenyl)-2-oxoethyl)-((4,4-dimethylcyclohexyl)methyl)carbamoyl)-5-(trifluoromethyl)pyrazol-1-yl)-1-methylcyclohexane-1-carboxylic acid] |
| 13200 pM | CC1(C)[C@@H]2C[C@H](N(CC(=O)c3c(Cl)cccc3Cl)C(=O)c3cnn([C@H]4CC[C@](C)(C(=O)O)CC4)c3Cl)C[C@@H]21 [Example 363, trans-4-(5-chloro-4-((2-(2,6-dichlorophenyl)-2-oxoethyl)((1R,3r,5S)-6,6-dimethylbicyclo[3.1.0]hexan-3-yl)carbamoyl)-1H-pyrazol-yl)-1-methylcyclohexanecarboxylic acid] |
| 55000 pM | COc1cccc(Cl)c1C(=O)CN(C(=O)c1cnn([C@H]2CC[C@](C)(C(=O)O)CC2)c1C(F)(F)F)C1CCC(C)(C)CC1 [Example 255, trans-4-(4-((2-(2-chloro-6-methoxyphenyl)-2-oxoethyl)-(4,4-dimethylcyclohexyl)carbamoyl)-5-(trifluoromethyl)pyrazol-1-yl)-1-methylcyclohexane-1-carboxylic acid] |
| 11200 pM | CC(C)(C)CN(CC(=O)c1c(Cl)cccc1Cl)C(=O)c1cnn([C@H]2CC[C@](C)(C(=O)O)CC2)c1C(F)(F)F [Example 284, trans-4-(4-((2-(2,6-dichlorophenyl)-2-oxoethyl)-(2,2-dimethylpropyl)carbamoyl)-5-(trifluoromethyl)pyrazol-1-yl)-1-methylcyclohexane-1-carboxylic acid] |
| 18200 pM | CC(C)(C)CN(CC(=O)c1c(Cl)cccc1C(F)(F)F)C(=O)c1cnn([C@H]2CC[C@](C)(C(=O)O)CC2)c1C(F)(F)F [Example 265] |
